# In US5952183A, “Synthesis of estrogen-purine base and estrogen-mercapturate adducts and development of fluorescent probes and monoclonal antibodies to assay those adducts” (priority 1998, dated 1999):
# Like-named read-outs stand apart in the source and are kept apart here.
# Columns and labels:
# [1] = published isomerization study of model o-quinone; cited from earlier work
# [2] = test system: DNA; assay: Formation of DNA adducts by quinones or horseradish peroxidase-activated catechol estrogens in vitro (32P-postlabeling for stable adducts); assay type: biochemical
# From the text: First, the o-quinones of estrogens are capable of binding directly to the nucleophilic groups of DNA bases. Second, the 3,4-quinones of estrogens produce depurinating adducts that are lost from DNA, generating apurinic sites in the DNA; and third, the 2,3-quinones form stable adducts that remain bound to DNA if not repaired. In fact, reaction of 2,3- and 3,4-quinones with DNA or CE activated by horseradish peroxidase in the presence of DNA affords differential formation of stable adducts, as evidenced by 32P-postlabeling analysis. The 2,3-quinones form 10-50 times higher levels of stable adducts than the 3,4-quinones.
# [3] = test system: DNA, rat mammary gland; assay: Formation of depurinating DNA adducts in the rat mammary gland; assay type: in vivo
# [4] = test system: hamster kidney; conditions: Syrian golden hamsters; cited from earlier work
# [5] = 1H-NMR monitoring of E1-2,3-Q to quinone methide tautomerization in CH3CN-d3; assay type: physicochemical
# [6] = Stability of estrogen quinones at various pH (remaining quinone by HPLC); assay type: physicochemical
# Experimental: Because acidic conditions were used to generate these estrogen-nucleoside adducts, an investigation was conducted of the effects of pH on the stability of both the 3,4- and 2,3-quinones.
# ^a pH was adjusted with the following buffers: pH 9, trisHCl; pH 7,
# distilled H2 O; […]; pH 3, citric acid.
# ^b t1/2 is defined as the time when 1/2 of the original quinone
# concentration was observed by HPLC
# ^c Quinones (0.02 mmol) were synthesized in 2 mL of CH3 CN and
# placed in 10 mL of aqueous buffer
structure (smiles),measurement,setting,value
O=C1C=C2CCCCC2=CC1=O,o-quinone more stable when tautomerized to the QM by,[1],3.8 kcal/mol
"C[C@]12CC[C@@H]3c4ccc(O)c(O)c4CC[C@H]3[C@@H]1CCC2=O [4-OHE1, 4-hydroxyestrone]","formation of depurinating E1(E2)-1-(α,β)-N7Gua adducts",[2],almost exclusively
same,"formation of depurinating E1(E2)-1-(α,β)-N7Gua adducts","[3]; rat, in vivo",almost exclusively
"C[C@]12CC[C@@H]3c4ccc(O)c(O)c4CC[C@H]3[C@@H]1CC[C@@H]2O [4-OHE2, 4-hydroxyestradiol]","formation of depurinating E1(E2)-1-(α,β)-N7Gua adducts","[2]; in vitro, 3,4-quinones or enzymically-activated 4-OHE1/4-OHE2",almost exclusively
same,"formation of depurinating E1(E2)-1-(α,β)-N7Gua adducts",[3]; rat mammary gland,almost exclusively
"C[C@]12CC[C@@H]3c4ccc(O)cc4CC[C@H]3[C@@H]1CCC2=O [E1, estrone]",induction of renal tumors / carcinogenicity,[4],Malignant renal tumors are induced
"C[C@]12CC[C@@H]3C4=CC(=O)C(=O)C=C4CC[C@H]3[C@@H]1CCC2=O [E1-2,3-Q]",change of 1H-NMR spectrum over time,"[5]; CH3CN-d3, two days",unchanged for two days
same,change of o-quinone 1H-NMR spectrum over time with acid,"[5]; CH3CN-d3 with CF3CO2H-d, two weeks",no change in the o-quinone spectrum was observed
same,effect of lowering pH on stability,[6],did not
same,decomposition under mildly basic conditions,[6],decomposed rapidly
same,half-life,"[6]; pH 3, citric acid, read-out: t1/2 (time when 1/2 of the original quinone concentration was observed by HPLC)",70 min
same,half-life,"[6]; pH 5, trizma, read-out: t1/2 (time when 1/2 of the original quinone concentration was observed by HPLC)",110 min
same,half-life,"[6]; pH 7, distilled H2O, read-out: t1/2 (time when 1/2 of the original quinone concentration was observed by HPLC)",110 min
same,half-life,"[6]; pH 9, trisHCl, read-out: t1/2 (time when 1/2 of the original quinone concentration was observed by HPLC)",< 5 min
"C[C@]12CC[C@@H]3C4=C(CC[C@H]3[C@@H]1CCC2=O)C(=O)C(=O)C=C4 [E1-3,4-Q]",effect of lowering pH on stability,[6],marked increase in stability
same,half-life,"[6]; citric acid, pH 3",390 min
same,half-life,"[6]; distilled h2o, pH 7",110 min
same,decomposition under mildly basic conditions,[6],decomposed rapidly
same,half-life,"[6]; trishcl, pH 9",< 5 min
same,half-life,"[6]; trizma, pH 5",190 min
"C[C@]12CC[C@@H]3c4ccc(O)cc4CC[C@H]3[C@@H]1CC[C@@H]2O [E2, 17β-estradiol]",induction of renal tumors / carcinogenicity,[4],Malignant renal tumors are induced
